“Also recorded” adds a separate entry of the source. Where a SMILES comes first, the peptide text is derived from it. Bridges are numbered along the chain shown (N, C = ends).
Experiments:
human IAPP (hIAPP) [1] = target: T1, human IAPP (hIAPP) (Homo sapiens, UniProt P10997); assay: Thioflavin T binding assay of hIAPP aggregation when mixed with IAPP peptides; type: biochemical; settings: peptide mixed with hIAPP; no single assay (thioflavin T and AFM)
T1 construct: This 37 amino acid polypeptide is co-secreted from pancreatic β-islet cells with insulin
T1 sequence (P10997 34-70 limits assumed): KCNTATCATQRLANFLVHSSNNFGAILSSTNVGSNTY
Procedure, shortened: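 37 μM hIAPP plus 75 μM animal IAPP (2:1) in 20 mM Tris pH 7.4, shaken 200 rpm at 37 °C for 40 min. Aliquots were mixed into 50.0 μM thioflavin T and emission read at 488 nm, with fibrils checked by AFM. Significance vs hIAPP alone was determined by t-test.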

human IAPP (hIAPP) [2] = target: T1, human IAPP (hIAPP); assay: Atomic force microscopy (AFM) of hIAPP fibril formation when mixed with IAPP peptides; type: biochemical
Procedure, shortened: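 hIAPP (37–40 μM) alone or mixed with other IAPP peptides (equimolar or about 2:1 peptide:hIAPP) was shaken at 37° C for 30–40 minutes. Samples deposited on mica, washed with water, dried and imaged by AFM in A/C mode; scans […], raw unflattened data.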

RIN-m cells = assay: MTT viability assay, peptide alone or mixed with hIAPP; type: cell-based
Procedure, shortened: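 RIN-m cells were exposed to hIAPP alone, each animal IAPP peptide alone, or hIAPP mixed with an animal IAPP for 46 h at 37° C in RPMI-1640 with 10% FBS. Viability by MTT reduction (2 h), formazan solubilized in SDS/DMF and read at 570 nm, relative to untreated cells as 100%.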

[3] = AFM of peptide alone (self-aggregation / fibril formation); type: physicochemical
Protocol: Samples labeled with hIAPP contained 40 μM hIAPP. The sample with pramlintide and hIAPP contained a 2:1 molar mixture (80 μM Pramlintide mixed with 40 μM hIAPP). The samples with raccoon IAPP and Pramlintide alone contained 40 μM of the indicated peptides. Each sample was incubated for 40 minutes at 37° C. with shaking; conditions known to promote hIAPP amyloid formation. All scans show raw data with no flattening and are […].
Samples of hIAPP with or without animal IAPP were prepared as described in Example 1 and were then incubated with shaking at 37° C. for 40 minutes. After this incubation, 17 μL of each sample was deposited onto freshly cleaved mica. Samples were incubated for 5 minutes at room temperature before washing with 200 μL sterile water. After drying, the samples were scanned using an MFP-3D atomic force microscope (Asylum Research) set on A/C mode and a 240 m silicon cantilever (Olympus).
Many of the animal IAPP variants are known to likewise form fibrils and yield amyloid-plaques when scanned via AFM. […] This is in spite of the fact that all of these IAPP peptides (except polar bear IAPP) are known to aggregate and form fibrils themselves under these or similar conditions

human IAPP (hIAPP) [4] = target: T1, human IAPP (hIAPP); assay: hIAPP aggregation in the presence of human insulin; type: biochemical
[5] = following injection; Wijesekara et al. 2015; cited from earlier work
human IAPP = target: T2, human IAPP (Homo sapiens, UniProt P10997); settings: cited from earlier work
T2 sequence (P10997 34-70 limits assumed): T1 sequence (P10997 34-70 limits assumed)

**Q.** With `CC[C@H](C)[C@H](NC(=O)[C@H](C)NC(=O)CNC(=O)[C@H](CC(C)C)NC(=O)[C@H](CC(N)=O)NC(=O)[C@H](CC(N)=O)NC(=O)[C@H](CO)NC(=O)[C@H](CO)NC(=O)[C@H](CCCNC(=N)N)NC(=O)[C@H](CC(C)C)NC(=O)[C@H](CC(C)C)NC(=O)[C@H](Cc1ccccc1)NC(=O)[C@H](CC(N)=O)NC(=O)[C@H](C)NC(=O)[C@H](CC(C)C)NC(=O)[C@H](CCCNC(=N)N)NC(=O)[C@H](CCC(N)=O)NC(=O)[C@@H](NC(=O)[C@@H](NC(=O)[C@@H]1CSSC[C@H](NC(=O)[C@@H](N)CCCCN)C(=O)N[C@@H](CC(N)=O)C(=O)N[C@@H]([C@@H](C)O)C(=O)N[C@@H](C)C(=O)N[C@@H]([C@@H](C)O)C(=O)N1)C(C)C)[C@@H](C)O)C(=O)N[C@@H](CC(C)C)C(=O)N[C@@H](CO)C(=O)N1CCC[C@H]1C(=O)N[C@H](C(=O)N[C@@H](CC(N)=O)C(=O)N[C@H](C(=O)NCC(=O)N[C@@H](CO)C(=O)N[C@@H](CC(N)=O)C(=O)N[C@H](C(=O)N[C@@H](Cc1ccc(O)cc1)C(N)=O)[C@@H](C)O)C(C)C)[C@@H](C)O` [raccoon IAPP] (H-KCNTATCVTQRLANFLLRSSNNLGAILSPTNVGSNTY-NH2; disulfide 2-7 (inferred); N-terminus and C-terminus assumed) as the molecule, how does the “inhibition of hIAPP aggregation (summary statement)” value (human IAPP (hIAPP) [1]) read?
**A.** able to inhibit such aggregation; also recorded: inhibit aggregate formation by hIAPP

**Q.** And the “inhibition of hIAPP fibril formation, AFM” value (human IAPP (hIAPP) [2]; 37 μM hIAPP and 75 μM peptide, 37° C. with shaking for 40 minutes)?
**A.** significant ability to prevent fiber formation

**Q.** What about the “prevention of hIAPP aggregation, AFM (FIG. 5)” value (human IAPP (hIAPP) [2]; 40 μM hIAPP, pramlintide 80 μM (2:1), 40 minutes at 37° C. with shaking) of the same molecule?
**A.** prevented hIAPP from aggregating

**Q.** What about the “rescue / protection of cells from hIAPP toxicity (words)” value (RIN-m cells; hIAPP mixed with peptide 1:1, MTT assay) of the same molecule?
**A.** protected the RIN-m cells from the toxic effects of hIAPP; also recorded: significant increase in cell viability; also recorded: rescue living cells from the toxic effects of hIAPP

**Q.** And the “toxicity of peptide to cells” value (RIN-m cells; peptide alone, MTT assay, pancreatic (RIN-m) cells)?
**A.** some cellular toxicity

**Q.** And the “aggregation propensity relative to comparator” value ([3]; comparison of pramlintide with the IAPP peptides)?
**A.** less aggregation-prone than Pramlintide

**Q.** And the “aggregation / fibril formation of peptide alone, AFM” value ([3]; peptide alone, incubated 40 minutes at 37° C. with shaking)?
**A.** did not aggregate

**Q.** What about the “prevention of hIAPP aggregation in the presence of human insulin” value (human IAPP (hIAPP) [4]) of the same molecule?
**A.** prevent hIAPP aggregation in the presence of human insulin

**Q.** Which “fasting blood glucose levels and glucose tolerance” value [5] does the source give for “ANFLVH (Islet amyloid polypeptide; UniProt P10997 46-51, looked up, fragment) [peptide derived from human IAPP, from Wijesekara et al. 2015]” here?
**A.** improve fasting blood glucose levels and glucose tolerance

**Q.** And the “decrease of cytotoxicity (literature)” value (human IAPP)?
**A.** decrease cytotoxicity

**Q.** And the “inhibition of amyloid fibril formation (literature)” value (human IAPP)?
**A.** inhibit amyloid fibril formation

— patent US12522635B2, “Amyloid peptide variants” (Loyola Marymount University, priority 2019, dated 2026)
